Data published in patent US9144557B2, “Hematopoietic growth factor mimetic small molecule compounds and their uses” (Ligand Pharmaceuticals Inc., priority 2009, dated 2015).

system: UT7/EPO Cell line; test: Cell Proliferation Assay (UT7/EPO, ViaLight Plus); format: cell-based, human; conditions: proliferative effect; compounds at 10 uM; UT7/EPO cells starved of EPO overnight; 72 hours at 37° C.; ViaLight Plus kit
Protocol: The primary testing for the examplfied compounds was performed in UT7/EPO Cell line. UT7/EPO is human leukemia cell line, obtained from Dr. Norio Komatsu (Blood, Vol 82 (2), pp 456-464, 1993). These cells express endogenous EPO receptor and are dependant upon EPO for growth and proliferation. Briefly, the cells were starved of EPO overnight and plated in 96 or 384 well plates. The compounds were added to the cells at 10 uM concentration. The plates were then incubated at 37° C. for 72 hours. The proliferative effect of the compounds was measured by a commercially available kit from Lonza (ViaLight Plus).

| SMILES | Activity (%) |
| --- | --- |
| CN(C)c1ccc(C(=O)Nc2ccc3[nH]c(-c4ccc5c(c4)OCCN5C)nc3c2)cc1 [Compound 181, 4-(Dimethylamino)-N-(2-(4-methyl-3,4-dihydro-2H-benzo[b][1,4]oxazin-7-yl)-1H-benzo[d]imidazol-5-yl)benzamide] | 20 |
| COCCOc1ccc2nc(-c3ccc(C(=O)Nc4ccc(N5CCC(O)CC5)cc4)cc3)[nH]c2c1 [Compound 670, N-(4-(4-Hydroxypiperidin-1-yl)phenyl)-4-(6-(2-methoxyethoxy)-1H-benzo[d]imidazol-2-yl)benzamide] | 8 |
| O=C(Nc1ccc2c(cnn2-c2ccc(NC(=O)c3cccs3)cc2)c1)c1ccc(N2CCCC(CO)C2)cc1 (racemic) [Compound 520, (±)-N-(4-(5-(4-(3-Hydroxymethyl)piperidin-1-yl)benzamido)-1H-indazol-1-yl)phenyl)thiophene-2-carboxamide] | 13 |
| CN(C)c1ccc(C(=O)Nc2ccc3[nH]c(-c4ccc(-c5nn[nH]n5)cc4)nc3c2)cc1 [Compound 202, N-(2-(4-(2H-tetrazol-5-yl)phenyl)-1H-benzo[d]imidazol-5-yl)-4-(dimethylamino)benzamide] | 17 |
| Cn1cccc1C(=O)Nc1ccc(C(=O)c2ccc(NC(=O)c3ccc(N4CCC(O)CC4)cc3Cl)cc2)cc1 [Compound 730, N-(4-(4-(2-Chloro-4-(4-hydroxypiperidin-1-yl)benzamido)benzoyl)phenyl)-1-methyl-1H-pyrrole-2-carboxamide] | 18 |
| Cc1cc(C(=O)Nc2ccc(C(=O)c3ccc(NC(=O)c4ccc(N5CCOCC5)cc4)cc3)cc2)[nH]n1 [Compound 500, 3-Methyl-N-(4-(4-(4-morpholinobenzamido)benzoyl)phenyl)-1H-pyrazole-5-carboxamide] | 19 |
| CN1CCN(c2ccc(-c3nc4cc(NC(=O)c5ccc(N6CCOCC6)cc5)ccc4[nH]3)cc2)CC1 [Compound 423, N-(2-(4-(4-Methylpiperazino)phenyl)-1H-benzimidazol-5-yl)-4-morpholinobenzamide] | 15 |
| CN(C)c1ccc(C(=O)N/N=C/c2cc(/C=N/NC(=O)c3ccc(N(C)C)cc3)cc(OCc3ccccc3)c2)cc1 [Compound 107, (N′,N′″E,N′,N′″E)-N′,N′″-((5-(benzyloxy)-1,3-phenylene)bis(methanylylidene))bis(4-(dimethylamino)benzohydrazide)] | 17 |
| O=C(Nc1ccc(C(=O)c2ccc(NC(=O)C3CC3)cc2)cc1)c1ccc(N2CCOCC2)cc1 [Compound 359] | 19 |
| O=C(CNC(=O)c1ccc(-c2ccc(C(=O)NCC(=O)Nc3ccc(N4CCOCC4)cc3)cc2)cc1)Nc1ccc(N2CCOCC2)cc1 [Compound 465, N,N′-bis(2-(4-Morpholinophenylamino)-2-oxoethyl)biphenyl-4,4′-dicarboxamide] | 18 |
| Cc1cc(C(=O)Nc2ccc(Nc3ccc(NC(=O)c4ccc(N5CCC(O)CC5)cc4)cc3)cc2)c(C)[nH]1 [Compound 790] | 18 |
| O=C(Nc1ccc(Nc2ccc(NC(=O)c3ccc4[nH]cnc4c3)cc2)cc1)c1ccc2[nH]cnc2c1 [Compound 590, N,N′-(4,4′-Azanediylbis(4,1-phenylene))bis(1H-benzimidazole-5-carboxamide)] | 12 |
| N#Cc1ccc(-c2nc3ccc(C(=O)Nc4ccc5[nH]c(-c6ccc(OCCO)cc6)nc5c4)cc3[nH]2)cc1 [Compound 294, 2-(4-cyanophenyl)-N-(2-(4-(2-hydroxyethoxy)phenyl)-1H-benzo[d]imidazol-5-yl)-1H-benzo[d]imidazole-6-carboxamide] | 11 |
| Nc1ccc(-n2ncc3cc(NC(=O)c4ccc(N5CCOCC5)cc4)ccc32)cc1 [Compound 381, N-(1-(4-Aminophenyl)-1H-indazol-5-yl)-4-morpholinobenzamide] | 15 |
| CCNc1ccc(C(=O)c2ccc(NC(=O)c3ccc(N4CCOCC4)cc3)cc2)cc1 [Compound 484, N-(4-(4-Ethylaminobenzoyl)phenyl)-4-morpholinobenzamide] | 16 |
| CN(C)c1ccc(C(=O)Nc2ccc(Sc3ccc(NC(=O)c4ccc(N(C)C)cc4)cc3)cc2)cc1 [Compound 408, N,N′-(4,4′-Thiobis(4,1-phenylene))bis(4-(dimethylamino)benzamide)] | 13 |
| O=C(Nc1ccc2[nH]c(-c3ccc(N4CCOCC4)s3)nc2c1)c1ccc(N2CCOCC2)cc1 [Compound 418, N-(2-(2-Morpholinothien-5-yl)-1H-benzimidazol-5-yl)-4-morpholinobenzamide] | 11 |
| O=C(Nc1ccc2c(ccn2-c2ccc(C(=O)NC3CC3)cc2)c1)c1ccc2c(ccn2CCN2CCOCC2)c1 [Compound 960, N-(1-(4-(Cyclopropylcarbamoyl)phenyl)-1H-indol-5-yl)-1-(2-morpholinoethyl)-1H-indole-5-carboxamide] | 17 |

| SMILES | Activity (%) |
| --- | --- |
| O=C(Nc1ccc2c(cnn2-c2ccc(NC(=O)c3ccc4cc[nH]c4c3)cc2)c1)c1ccc(N2CCC(O)CC2)cc1 [Compound 510, N-(4-(5-(4-(4-Hydroxypiperidin-1-yl)benzamido)-1H-indazol-1-yl)phenyl)-1H-indole-6-carboxamide] | 17 |
| O=C(Nc1ccc(N2CCOCC2)cc1)c1ccc(-c2nc3ccc(OCc4ccccc4)cc3[nH]2)cc1 [Compound 639, 4-(6-Benzyloxy-1H-benzo[d]imidazol-2-yl)-N-(4-morpholinophenyl)benzamide] | 15 |
| O=C(Nc1ccc(N2CCC(O)CC2)cc1)c1ccc2c(cnn2-c2ccc(NC(=O)C3CC3)cc2)c1 [Compound 945, 1-(4-(Cyclopropanecarboxamido)phenyl)-N-(4-(4-hydroxypiperidin-1-yl)phenyl)-1H-indazole-5-carboxamide] | 10 |
| O=C(Nc1ccc(C(=O)c2ccc(NC(=O)c3ccno3)cc2)cc1)c1ccc(N2CCOCC2)cc1 [Compound 600, 4-Morpholino-N-(4-(4-(isoxazole-5-carboxamido)benzoyl)phenyl)benzamide] | 11 |
| O=C(NC1CC1)c1ccc(-n2cnc3cc(NC(=O)c4cc5ccccc5[nH]4)ccc32)cc1 [Compound 1060, N-(1-(4-(Cyclopropylcarbamoyl)phenyl)-1H-benzo[d]imidazol-5-yl)-1H-indole-2-carboxamide] | 18 |
| Cc1cc(C(=O)Nc2ccc(C(=O)c3ccc(NC(=O)c4ccc(N5CCOCC5)cc4)cc3)cc2)cc(Cl)n1 [Compound 620, 4-Morpholino-N-(4-(4-(2-chloro-6-methylpyridine-4-carboxamido)benzoyl)phenyl)benzamide] | 18 |
| CN(C)c1ccc(NC(=O)c2ccc(-c3nc4cc(NC(=O)c5ccccc5)ccc4[nH]3)cc2)cc1 [Compound 191, 4-(5-benzamido-1H-benzo[d]imidazol-2-yl)-N-(4-(dimethylamino)phenyl)benzamide] | 18 |
| O=C(Nc1ccc(C(=O)c2ccc(NC(=O)c3ccc4[nH]ccc4c3)cc2)cc1)c1ccc2[nH]ccc2c1 [Compound 345, N,N′-(4,4′-Carbonylbis(4,1-phenylene))bis(1H-indole-5-carboxamide)] | 19 |
| COc1ccc(-c2nc3cc(NC(=O)c4ccc(-n5cccc5)cc4)ccc3[nH]2)cc1 [Compound 1729, N-(2-(4-Methoxyphenyl)-1H-benzimidazol-5-yl)-4-pyrrolylbenzamide] | 14 |
| O=C(Nc1ccc2[nH]c(-c3ccc(N4CCOCC4)cc3)nc2c1)c1ccccc1O [Compound 427, N-(2-(4-Morpholinophenyl)-1H-benzimidazol-5-yl)-2-hydroxybenzamide] | 15 |
| COc1cccc(/C=N/NC(=O)c2ccc(C(=O)NCCC(=O)NCCO)cc2)c1 [Compound 141, (E)-N-(3-((2-hydroxyethyl)amino)-3-oxopropyl)-4-(2-(3-methoxybenzylidene)hydrazinecarbonyl)benzamide] | 19 |
| Cn1nccc1C(=O)Nc1ccc(C(=O)c2ccc(NC(=O)c3ccc(N4CCC(O)CC4)cc3)cc2)cc1 [Compound 720, N-(4-(4-(4-(4-Hydroxypiperidin-1-yl)benzamido)benzoyl)phenyl)-1-methyl-1H-pyrazole-5-carboxamide] | 16 |
| CN(C)c1ccc(C(=O)N/N=C/c2cccc(/C=N/NC(=O)c3ccc(N(C)C)cc3)c2)cc1 [Compound 103, (N′,N′″E,N′,N′″E)-N′,N′″-(1,3-phenylenebis(methanylylidene))bis(4-(dimethylamino)benzohydrazide)] | 16 |
| CON=C(c1ccc(NC(=O)c2ccc(N3CCC(O)C3)cc2)cc1)c1ccc(NC(=O)c2ccc(N3CCC(O)C3)cc2)cc1 (centres unmarked) [Compound 315, N,N′-(((methoxyimino)methylene)bis(4,1-phenylene))bis(4-(3-hydroxypyrrolidin-1-yl)benzamide)] | 16 |
| O=C(Nc1ccc(Nc2ccc(NC(=O)c3cc[nH]c3)cc2)c(F)c1)c1ccc(N2CCC(O)CC2)cc1 [Compound 860, N-(4-((2-Fluoro-4-(4-(4-hydroxypiperidin-1-yl)benzamido)phenyl)amino)phenyl)-1H-pyrrole-3-carboxamide] | 17 |
| CN(C)c1ccc(-c2nc3cc(-c4ccc5[nH]c(-c6ccc(N(C)C)cc6)nc5c4)ccc3[nH]2)cc1 [Compound 1744, 4,4′-(5,5′-Bibenzimidazole-2,2′-diyl)bis(N,N-dimethylaniline)] | 11 |
| CN(C)c1ccc(C(=O)Nc2ccc(-n3ncc4cc(NC(=O)C5CC5)ccc43)cc2)cc1 [Compound 384, N-(4-(5-(cyclopropanecarboxamido)-1H-indazol-1-yl)phenyl)-4-(dimethylamino)benzamide] | 11 |
